Values quoted from earlier work, collected in patent US10335495B2, “Biomolecule conjugates” (CELGENE CORPORATION, priority 2014, dated 2019).

Conditions: versus methotrexate, daunorubicin, and vincristine

SMILES: COc1cc2cc(c1Cl)N(C)C(=O)C[C@H](OC(=O)[C@H](C)N(C)C(C)=O)[C@]1(C)O[C@H]1[C@H](C)[C@@H]1C[C@@](O)(NC(=O)O1)[C@H](OC)/C=C/C=C(\C)C2 [Maytansine]
- more cytotoxic than conventional cancer chemotherapeutic agents: 100- to 1000 fold
